In brackets after ≈: the same amount, converted by molar mass.

The source of these data is patent US20240336559A1, “ANTI-FUNGALS COMPOUNDS TARGETING THE SYNTHESIS OF FUNGAL SPHINGOLIPIDS” (The Research Foundation for the State University of New York, priority 2021, published 2024).

Series [1] concerns synthesis of sphingolipid GlcCer in C. neoformans. The conditions noted are these: in words, 'It was known'; cited from earlier work.
Another series has as its system C. neoformans. Put plainly: Antifungal activity assay (MIC80), C. neoformans. It counts as cell-based. Conditions: Cryptococcus neoformans; lowest concentration inhibiting 80% of growth; YNB pH 7.0 HEPES, 37° C., 5% CO2, 24 to 72 h; read-out: MIC80 C. neoformans. The procedure: (§1) MICs were determined following the methods of the Clinical and Laboratory Standards Institutes (CLSI) with modifications. Yeast nitrogen base (YNB) medium without amino acid (pH 7.0, 2% glucose) buffered with (4-(2-hydroxyethyl)-1-piperazineethanesulfonic acid) (HEPES) was used for MIC studies in C. neoformans. YNB medium without ammonium sulfate, without amino acid and 1% asparagine (pH 7.0, 2% glucose) was used for MIC studies in Candida strains. RPMI medium (pH 7.0, 2% glucose) was used for MIC studies in A. fumigatus. […] The compounds were serially diluted from 32 to 0.03 μg/mL, in a 96-well plate. The inoculum was prepared as described in the CLSI protocol M27A3 guidelines. The plates were incubated at 37° C. with 5% CO2 for 24 to 72 h and the optical density was measure at 450 nm. The MICs were determined as the lowest concentration of the compound that inhibited 80% of growth compared to the control.
MICs was determined following the methods of the Clinical and Laboratory Standards Institutes (CLSI) with modifications. Yeast Nitrogen Base (YNB) medium (pH 7.0, 0.2% glucose) buffered with HEPES was used for MIC studies. […] The compound was serially diluted from 16 to 0.03 μg/ml, in a 96-well plate. The inoculum was prepared as described in the CLSI protocol M27A3 guidelines. The plates were incubated at 37° C. with 5% CO2 for 24 to 72 h and the optical density was measure at 450 nm. The MICs was determined as the lowest concentration of the compound that inhibited 80% of growth compared to the control.

Another series deals with A. fumigatus. Put plainly: Antifungal activity assay (MIC80), A. fumigatus. The conditions noted are these: Aspergillus fumigatus; lowest concentration inhibiting 80% of growth; RPMI pH 7.0, 37° C., 5% CO2, 24 to 72 h. It counts as cell-based. The procedure: as §1
Series [2] relates to C. neoformans, C. albicans, A. fumigatus. Kind of series: Broad spectrum in vitro antifungal activity. The class given is cell-based. The conditions noted are these: in words. The protocol:
as §1

The subject of the next series is C. albicans. Kind of series: Antifungal activity assay (MIC80), C. albicans. The class given is cell-based. Conditions: Candida albicans; lowest concentration inhibiting 80% of growth; YNB pH 7.0, 37° C., 5% CO2, 24 to 72 h. The protocol:
as §1

Regarding `Cc1ccccc1C(=O)N/N=C/c1ccc(O)c(Br)c1` [BHBM], the “antifungal activities by inhibiting the synthesis of sphingolipid GlcCer” value in series [1] is listed as “potent antifungal activities”.
As usually defined, the MIC80 is an inhibitory concentration at the 80% level, which refers to growth in some studies and to a panel of isolates in others. Turning to `C#Cc1ccc(/C=N/NC(=O)c2ccc(Br)cc2Br)c(O)c1` [SB-AF-08-27, 2,4-Dibromo-N′-(4-ethynyl-2-hydroxybenzylidene)benzohydrazide], the MIC80 in the series with C. neoformans stood at 0.03 µg/mL (≈ 0.0711 µM); against A. fumigatus, 0.5 µg/mL (≈ 1.18 µM); in the series on C. albicans, 0.12 µg/mL (≈ 0.284 µM). Further, the “in vitro broad-spectrum antifungal activity” value in series [2] is reported as “excellent in vitro broad-spectrum activity”.
What is called melting point is the temperature, or range, at which the solid turns liquid. Regarding `CC(C)OCc1ccc(C(=O)N/N=C/c2cc(Br)cc(Br)c2O)cc1` [SB-AF-41-17, 4-Isopropoxymethyl-N′-(3,5-dibromo-2-hydroxybenzylidene)benzohydrazide], the melting point was in the range of 186 to 187 °C.
On the same count and under the same terms, next, `CCCOCc1ccc(C(=O)N/N=C/c2cc(Br)ccc2O)cc1` [SB-AF-44-15, 4-Propoxymethyl-N′-(5-bromo-2-hydroxybenzylidene)benzohydrazide]: 175 to 176 °C; `CCCOCc1ccc(C(=O)N/N=C/c2cc(Br)cc(Br)c2O)cc1` [SB-AF-44-17, 4-Propoxymethyl-N′-(3,5-dibromo-2-hydroxybenzylidene)benzohydrazide]: 190 to 192 °C.
